From PMC3937722, “Biochemical studies on a versatile esterase that is most catalytically active with polyaromatic esters” (Microbial Biotechnology, 2014)

system: T1, CN1E1; assay: ester hydrolysis kinetics, p-nitrophenol release; assay type: biochemical, uncultured bacterium; settings: pH 7.0 (b12; table heading says pH 8.0), 40°C
T1 construct: catalytic triad Ser155, Asp250, His280
Source text: ester hydrolysis kinetics, p-nitrophenol release on CN1E1

Compound | Km
CC(=O)Oc1ccc([N+](=O)[O-])cc1 [pNP-acetate] | 190 ± 10 µM

system: T1, CN1E1; assay: ester hydrolysis kinetics; assay type: biochemical, uncultured bacterium; settings: 5 mM EPPS pH 8.0, 40°C
Source text: ester hydrolysis kinetics on CN1E1

Compound | Km
COC(=O)c1ccc2cc3ccccc3cc2c1 [Anthracene-2-carboxylic acid methyl ester] | 1470 ± 50 µM
CC(=O)OC[C@H]1OC=C[C@@H](OC(C)=O)[C@@H]1OC(C)=O [Tri-O-acetyl-D-glucal] | 1080 ± 50 µM
CC(=O)OCC(COC(C)=O)OC(C)=O [Triacetin] | 1640 ± 80 µM
CCCCOC(C)=O [Butyl acetate] | 2100 ± 170 µM
O=Cc1ccc(C(=O)OCc2ccccc2)cc1 [Benzoic acid, 4-formyl-, phenylmethyl ester] | 640 ± 60 µM
COC(=O)/C=C/c1cc(O)ccc1O [2,5-Dihydroxycinnamic acid methyl ester] | 1060 ± 60 µM
COC(=O)CBr [Methyl bromoacetate] | 1700 ± 90 µM
CC(=O)Oc1ccccc1 [Phenyl acetate] | 940 ± 50 µM
CCOC(=O)c1ccc(O)c(O)c1 [Protocatechuic acid ethyl ester] | 1140 ± 60 µM
COC(=O)c1ccc2ccc3ccccc3c2c1 [Methyl phenanthrene-3-carboxylate] | 1600 ± 90 µM
Naphthalene carboxylic acid methyl ester | 710 ± 60 µM
COC(=O)c1ccccc1C(=O)OC [Dimethyl phthalate] | 1590 ± 100 µM
COC(=O)c1cc2ccccc2c2ccccc12 [Methyl phenanthrene-9-carboxylate] | 530 ± 30 µM
